The assay concerns the target T1, human MRGPRX2 (Homo sapiens, UniProt Q96LB1).
T1 construct: expressed in transfected cells
T1 sequence (Q96LB1 1-330): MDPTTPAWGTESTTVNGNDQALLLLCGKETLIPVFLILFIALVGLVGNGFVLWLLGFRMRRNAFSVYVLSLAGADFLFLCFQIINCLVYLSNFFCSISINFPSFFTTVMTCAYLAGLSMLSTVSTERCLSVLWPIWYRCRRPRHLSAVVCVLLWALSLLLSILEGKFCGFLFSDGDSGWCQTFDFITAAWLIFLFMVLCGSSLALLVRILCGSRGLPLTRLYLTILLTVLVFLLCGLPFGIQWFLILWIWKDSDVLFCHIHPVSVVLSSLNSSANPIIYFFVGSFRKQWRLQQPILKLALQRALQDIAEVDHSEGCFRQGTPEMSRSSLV
In words: MRGPRX2 Activity: IP-One HTRF antagonist assay in CHO cells stably expressing human MRGPRX2, versus Cortistatin-14. The format is cell-based. As to conditions: versus 0.3 uM Cortistatin-14 agonist, IP-1 HTRF, read-out: MRGPR2 Antagonist Activity. The protocol: CHO cells stably transfected to express human MRGPRX2 were maintained in an incubator at 37° C. with 5% CO2 and grown in F12 (HAM) media with 10% fetal bovine serum (FBS), 1% Glutamax, 1% penicillin/streptomycin, 800 μg/mL Geneticin (G418), and 300 μg/mL Hygromycin B. Cells were plated in a 384-well assay plate at 20,000 cells per well in 12 μL of Opti-MEM and kept in an incubator overnight. On the day of the assay, compounds solubilized at 10 mM in DMSO were added as a 10-point curve (30 uM final top concentration with 1:3 serial dilutions) using a Tecan D300E digital dispenser. Agonists were diluted in assay buffer (final concentrations of 5.7 mM Tris-HCl, 43 mM NaCl, 50 mM LiCl, pH=8) and 2 μL of the agonist Cortistatin-14 (CPC Scientific, catalog CORT-002) are added to each well. Final concentrations of agonists were 0.3 μM Cortistatin-14. Final concentrations of DMSO were kept consistent across the plate. Plates were incubated in the dark for 1 hr at 37° C. and then for 1 hr at room temperature. IP-1 standards and HTRF detection reagents were added according to the IP-One-Gq Kit purchased from Cisbio (part number 62IPAPEJ) and incubated in the dark for 1 hr at room temperature. The plate was read on a Molecular Devices SpectraMax iD5 plate reader. The HTRF ratio was calculated from the raw data and graphed using GraphPad Prism to calculate an IC50 value for each compound.
The activity ranges are denoted as follows: “+++++” denotes antagonist activity <50 nM; “++++” denotes antagonist activity between 51 and 100 nM; “+++” denotes activity between 101 and 500 nM; “++” denotes activity between 501 and 1000 nM; and “+” denotes activity >1000 nM
For orientation: Time-resolved FRET reads energy transfer from a long-lived donor to a nearby acceptor.
With `Cc1nc2cccc(C(=O)N[C@H]3CC[C@@H](Nc4cccc5nc(C(F)(F)F)cn45)CC3)c2s1` [2-169], the IC50 is below 50 nM.

As for `CNc1ccc(C(=O)N[C@H]2CC[C@@H](Nc3cccc4nc(C#N)cn34)CC2)cc1` [2-259], the IC50 lay within 101 to 500 nM.

On to `COc1ccc(C(=O)N[C@@H]2CCC[C@H](Nc3cccc4sc(OC)cc34)C2)cc1` [1-14], for which the IC50 was above 1000 nM.

On to `COc1ccc(C(=O)N[C@H]2CC[C@@H](Nc3cccc4nc(C(F)F)cn34)CC2)c(F)c1` [2-27], for which the IC50 lay in the range of 101 to 500 nM.

Take `Cc1c(C(=O)N[C@H]2CC[C@@H](Nc3cccc4nc(C(F)(F)F)cn34)CC2)c2ccccc2n1C` [2-227]: the IC50 is 101 to 500 nM.

As for `COc1ccc(C(=O)N[C@@H]2CCC[C@H](Nc3cccc4sc(C#N)cc34)C2)cc1` [1-16], the IC50 was in the range of 101 to 500 nM.

For the compound `O=C(N[C@H]1CC[C@@H](Nc2cccc3nc(C(F)(F)F)cn23)CC1)c1cnc[nH]1` [2-11], the IC50 lay in the range of 101 to 500 nM.

`O=C(N[C@H]1CC[C@@H](Nc2cccc3nc(C(F)F)cn23)CC1)c1ccc(Cl)cc1Cl` [2-275]: the IC50 lay within 101 to 500 nM.

As to `O=C(N[C@H]1CC[C@@H](Nc2cccc3nc(C(F)(F)F)cn23)CC1)c1cc2cc(F)cnc2[nH]1` [2-120], the IC50 was below 50 nM.

For the compound `COc1cccc2cc(C(=O)N[C@H]3CC[C@@H](Nc4cccc5nc(C(F)(F)F)cn45)CC3)oc12` [2-166], the IC50 lay in the range of 51 to 100 nM.

Turning to `O=C(N[C@H]1CC[C@@H](Nc2cccc3nc(C(F)F)cn23)CC1)c1ccnc(NCC(F)F)c1` [2-150], the IC50 was below 50 nM.

With `N#Cc1nn(C(F)F)cc1C(=O)N[C@H]1CC[C@@H](Nc2cccc3nc(C(F)(F)F)cn23)CC1` [2-229], the IC50 is below 50 nM.

Regarding `O=C(N[C@H]1CC[C@@H](Nc2cccc3nc(C(F)F)cn23)CC1)c1ccc(OCCF)cc1` [2-218], the IC50 is below 50 nM.

For the compound `Cc1n[nH]c2c(C(=O)N[C@H]3CC[C@@H](Nc4cccc5nc(C(F)(F)F)cn45)CC3)cccc12` [2-183], the IC50 was below 50 nM.

For `O=C(N[C@H]1CC[C@@H](Nc2cccc3nc(C(F)(F)F)cn23)CC1)c1ccc(C(F)F)cc1` [2-179], the IC50 is below 50 nM.

For `CC(=O)c1cc2c(N[C@H]3CC[C@@H](NC(=O)c4ccc(F)cc4)CC3)cccc2s1` [1-5], the IC50 is 101 to 500 nM.

Regarding `COc1cccc(C(=O)N[C@H]2CC[C@@H](Nc3cccc4nc(C#N)cn34)CC2)c1` [2-260], the IC50 lay within 101 to 500 nM.

As to `O=C(N[C@H]1CC[C@@H](Nc2cccc3nc(C(F)(F)F)cn23)CC1)c1cnc2nccn2c1` [2-125], the IC50 lay within 101 to 500 nM.

Take `CN(C)c1ccc(C(=O)N[C@H]2CC[C@@H](Nc3cccc4nc(C#N)cn34)CC2)cc1` [2-258]: the IC50 is below 50 nM.

Take `CC(C)(O)Cn1cc(C(=O)N[C@H]2CC[C@@H](Nc3cccc4nc(C(F)F)cn34)CC2)c(Cl)n1` [2-283]: the IC50 is 101 to 500 nM.

With `CC(C)Oc1ccc(C(=O)N[C@H]2CC[C@@H](Nc3cccc4nc(C(F)(F)F)cn34)CC2)cc1Cl` [2-207], the IC50 fell in the range of 101 to 500 nM.

For the compound `O=C(N[C@H]1CC[C@@H](Nc2cccc3nc(C(F)F)cn23)CC1)c1cn(C(F)(F)F)nc1Cl` [2-295], the IC50 lay within 51 to 100 nM.

For `Cn1ncc(C(=O)N[C@H]2CC[C@@H](Nc3cccc4nc(C(F)F)cn34)CC2)c1NCC(F)F` [2-270], the IC50 lay within 51 to 100 nM.

In the case of `CN(CC(F)F)c1cccc(C(=O)N[C@H]2CC[C@@H](Nc3cccc4nc(C(F)(F)F)cn34)CC2)c1` [2-14], the IC50 was 51 to 100 nM.

As to `O=C(N[C@H]1CC[C@@H](Nc2cccc3nc(C(F)F)cn23)CC1)c1cncs1` [2-147], the IC50 was in the range of 101 to 500 nM.

With `COc1ccc(C(=O)N[C@H]2CC[C@@H](Nc3cccc4nn(C(F)(F)F)cc34)CC2)cc1` [1-21], the IC50 lay within 51 to 100 nM.

Regarding `O=C(N[C@H]1CC[C@@H](Nc2cccc3nc(C(F)(F)F)cn23)CC1)c1ccc(NCC(F)F)cc1` [2-180], the IC50 was below 50 nM.

On to `Cn1cc(C(=O)N[C@H]2CC[C@@H](Nc3cccc4nc(C(F)F)cn34)CC2)c(NCC(F)F)n1` [2-288], for which the IC50 is below 50 nM.

As for `O=C(N[C@H]1CC[C@@H](Nc2cccc3nc(C(F)F)cn23)CC1)c1c[nH]nc1NCC(F)F` [2-194], the IC50 is below 50 nM.

On to `O=C(N[C@H]1CC[C@@H](Nc2cccc3nc(C(F)(F)F)cn23)CC1)c1ccn2ccnc2c1` [2-208], for which the IC50 was 51 to 100 nM.

For `CC(C#N)c1cccc(C(=O)N[C@H]2CC[C@@H](Nc3cccc4sc(C(F)(F)F)cc34)CC2)c1` (stereo partly shown) [2-5], the IC50 lay in the range of 101 to 500 nM.

In the case of `O=C(N[C@H]1CC[C@@H](Nc2cccc3sc(C(F)F)cc23)CC1)c1ccc(F)cc1` [1-13], the IC50 was in the range of 51 to 100 nM.

In the case of `CC(=O)Nc1cccc(C(=O)N[C@H]2CC[C@@H](Nc3cccc4sc(C(F)(F)F)cc34)CC2)c1` [2-2], the IC50 was above 1000 nM.

As to `O=C(N[C@H]1CC[C@@H](Nc2cccc3nc(C(F)(F)F)cn23)CC1)c1ccc(OCCF)cc1` [2-230], the IC50 is below 50 nM.

For the compound `Nc1nn(CC(F)(F)F)cc1C(=O)N[C@H]1CC[C@@H](Nc2cccc3nc(C(F)(F)F)cn23)CC1` [Example 7, 3-amino-1-(2,2,2-trifluoroethyl)-N-[4-[[2-(trifluoromethyl)imidazo[1,2-a]pyridin-5-yl]amino]cyclohexyl]pyrazole-4-carboxamide], the IC50 was below 50 nM.

With `CN(CC(F)F)c1ccc(C(=O)N[C@H]2CC[C@@H](Nc3cccc4nc(C(F)F)cn34)CC2)cc1` [2-274], the IC50 is below 50 nM.

With `Cn1cc(C(=O)N[C@H]2CC[C@@H](Nc3cccc4nc(C(F)(F)F)cn34)CC2)c(N)n1` [2-246], the IC50 was below 50 nM.

`CCn1ncc(C(=O)N[C@H]2CC[C@@H](Nc3cccc4nc(C(F)(F)F)cn34)CC2)c1Cl` [2-292]: the IC50 is 101 to 500 nM.

With `COc1ccc(C(=O)N[C@@H]2CCC[C@H](Nc3cccc4sc(C(F)(F)F)cc34)C2)cc1` [Example 2, 4-methoxy-N-((1R,3S)-3-((2-(trifluoromethyl)benzo[b]thiophen-4-yl)amino)cyclohexyl)benzamide], the IC50 was in the range of 101 to 500 nM.

Consider `COc1ccc(C(=O)N[C@H]2CC[C@@H](Nc3cccc4nc(C(F)F)cn34)CC2)c(Cl)c1` [2-148], for which the IC50 was in the range of 51 to 100 nM.

`CCOCc1cc2c(N[C@H]3CCC[C@@H](NC(=O)c4ccc(OC)cc4)C3)cccc2s1` [1-3]: the IC50 was above 1000 nM.

`O=C(N[C@H]1CC[C@@H](Nc2cccc3nc(C(F)(F)F)cn23)CC1)c1cn(CC(F)(F)F)nc1Cl` [Example 12, 3-chloro-1-(2,2,2-trifluoroethyl)-N-((1s,4s)-4-((2-(trifluoromethyl)imidazo[1,2-a]pyridin-5-yl)amino)cyclohexyl)-1H-pyrazole-4-carboxamide]: the IC50 is below 50 nM.

In the case of `N#Cc1cccc(C(=O)N[C@H]2CC[C@@H](Nc3cccc4sc(C(F)(F)F)cc34)CC2)c1` [Example 5, 3-cyano-N-((1 S,4S)-4-((2-(trifluoromethyl)benzo[b]thiophen-4-yl)amino)cyclohexyl)benzamide], the IC50 is 101 to 500 nM.

As to `COc1ccc(C(=O)N[C@@H]2CCC[C@H](Nc3cc(F)cc4nc(C(F)(F)F)cn34)C2)cc1` [1-31], the IC50 lay in the range of 51 to 100 nM.

In the case of `O=C(N[C@H]1CC[C@@H](Nc2cccc3nc(C(F)(F)F)cn23)CC1)c1c[nH]nc1C(F)(F)F` [2-177], the IC50 is below 50 nM.

Take `CNc1ccccc1C(=O)N[C@H]1CC[C@@H](Nc2cccc3nc(C(F)F)cn23)CC1` [2-276]: the IC50 fell in the range of 51 to 100 nM.

In the case of `COc1ccc(C(=O)N[C@@H]2CCC[C@H](Nc3cccc4oc(C(F)(F)F)nc34)C2)cc1` [Example 4, 4-methoxy-N-[(1R,3S)-3-[[2-(trifluoromethyl)-1,3-benzoxazol-4-yl]amino]cyclohexyl]benzamide], the IC50 fell in the range of 501 to 1000 nM.

Take `CCCn1cc(C(=O)N[C@H]2CC[C@@H](Nc3cccc4nc(C(F)F)cn34)CC2)cn1` [2-255]: the IC50 was in the range of 101 to 500 nM.

Turning to `O=C(N[C@H]1CC[C@@H](Nc2cccc3nc(C(F)(F)F)cn23)CC1)c1cnn(CC(F)F)c1C(F)F` [2-284], the IC50 was in the range of 101 to 500 nM.

Consider `COc1ccc(C(=O)N[C@H]2CC[C@@H](Nc3cccc4sc(C(F)(F)F)nc34)CC2)cc1` [1-17], for which the IC50 is above 1000 nM.

As for `O=C(N[C@H]1CC[C@@H](Nc2cccc3nc(C(F)F)cn23)CC1)c1ccc(F)nc1` [2-254], the IC50 lay within 101 to 500 nM.

As for `O=C(N[C@H]1CC[C@@H](Nc2cccc3nc(C(F)(F)F)cn23)CC1)c1ccc(NCC(F)(F)F)cc1` [2-23], the IC50 was below 50 nM.

The values above are taken from patent US11667636B2, “Modulators of Mas-related G-protein receptor X2 and related products and methods” (Escient Pharmaceuticals, Inc., priority 2020, dated 2023).
